Literature values, collected in patent US6391881B1, “Thiourea derivatives of dihydropyridine NPY antagonists” (Bristol-Myers Squibb Company, priority 2000, dated 2002).

How the values were obtained:
[1] = system: NPY-induced Ca++ entry in HEL cells
[2] = system: NPY-induced contractions in guinea pig basilar artery
[3] = system: NPY-related increases in diastolic blood pressure; settings: anesthetized guinea pig model
[4] = target: T1, human neuroblastoma cells (Homo sapiens, UniProt P25929)
T1 construct: displacing I-125 labeled NPY and PYY in human neuroblastoma cells
T1 sequence (P25929 1-384): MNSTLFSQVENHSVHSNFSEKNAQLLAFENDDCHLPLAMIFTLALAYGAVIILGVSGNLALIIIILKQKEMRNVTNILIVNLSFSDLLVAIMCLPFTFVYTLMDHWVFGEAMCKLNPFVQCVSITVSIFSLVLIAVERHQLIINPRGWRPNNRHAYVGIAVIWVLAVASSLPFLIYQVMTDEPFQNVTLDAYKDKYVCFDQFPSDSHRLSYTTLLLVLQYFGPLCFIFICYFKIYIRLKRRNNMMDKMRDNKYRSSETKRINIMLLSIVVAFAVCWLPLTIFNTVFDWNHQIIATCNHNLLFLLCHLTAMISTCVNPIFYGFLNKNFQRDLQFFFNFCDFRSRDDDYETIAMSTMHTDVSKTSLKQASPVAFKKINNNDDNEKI

[5] = target: T2, human neuroblastoma cells (SK-N-MC) (Homo sapiens, UniProt P25929)
T2 construct: displaces I-125 Bolton-Hunter labeled NPY in human neuroblastoma cells (SK-N-MC); host or cells: SK-N-MC human neuroblastoma cells (endogenous receptor; no transfection mentioned)
T2 sequence (P25929 1-384): T1 sequence (P25929 1-384)

[6] = system: NPY-induced pressor response; settings: pithed rat
[7] = system: NPY-induced increase in intracellular Ca++ in SK-N-MG cells

Structure (SMILES): N=C(NCCCc1cnc[nH]1)NCCC(c1cc(F)cc(F)c1)c1ccccn1 (centres unmarked) [He 90481]
- antagonism of NPY-induced Ca++ entry (in words) [1]: weak but competitive antagonist
- pA2, antagonism of NPY-induced Ca++ entry [1]: 4.43

Structure (SMILES): O=P(O)(O)OC1[C@H](OP(=O)(O)O)[C@H](O)C(O)[C@H](O)[C@H]1OP(=O)(O)O (stereo partly drawn) [D-Myo-inositol-1,2,6-triphosphate]
- antagonism of NPY-induced contractions (in words) [2]: potent but non-competitive antagonist

Structure (SMILES): CN(C)CC1CCC(CN=C(N)c2ccc(C[C@@H](NC(=O)[C@@H](Cc3ccccc3)NS(=O)(=O)c3ccc4ccccc4c3)C(=O)N3CCCC3)cc2)CC1 (some centres unmarked) [SR 120819A]
- antagonism of NPY-related increases in diastolic blood pressure (in words) [3]: antagonized
- displacement of I-125 labeled NPY and PYY (in words) [4]: displacing

Structure (SMILES): NC(N)=NCCC[C@@H](NC(=O)C(c1ccccc1)c1ccccc1)C(=O)NCc1ccc(O)cc1 [BIBP 3226]
- displacement of I-125 Bolton-Hunter labeled NPY (in words) [5]: displaces
- antagonism of NPY-induced pressor response (in words) [6]: antagonizing
- antagonism of NPY-induced increase in intracellular Ca++ (in words) [7]: antagonized
